Experimental data: patent US20240218022A1, “ANTI-VISTA MACROCYCLIC PEPTIDES AND COMPOSITIONS” (BRISTOL-MYERS SQUIBB COMPANY, priority 2022, published 2024)
Read-outs that look alike come from different tables or passages of the source. Starred links: 1 amine or outer side, 2 acyl side, 3 side chain; linkers in the order of their positions; H or OH if unused. Positions of bridges follow the written chain, without caps; N, C: chain ends. Non-standard residues stand in square brackets, D forms with d. Residues, ends and D or L forms follow the SMILES beside them. Trp(1-Me) = Cn1cc(C[C@H](N)C(=O)O)c2ccccc21; γGlu = O=C(O)[C@H](CCC(=O)[*:2])N[*:1]; 2Nal = N[C@@H](Cc1ccc2ccccc2c1)C(=O)O; βAsp = O=C(O)[C@H](CC(=O)[*:2])N[*:1]; 4Pal = N[C@@H](Cc1ccncc1)C(=O)O; Tic = O=C(O)[C@@H]1Cc2ccccc2CN1; NMeL = CN[C@@H](CC(C)C)C(=O)O; Ahp(2) = CCCCC[C@H](N)C(=O)O; NMeNle = CCCC[C@H](NC)C(=O)O; Tle = CC(C)(C)[C@H](N)C(=O)O; NMeS = CN[C@@H](CO)C(=O)O; NHexGly = CCCCCCNCC(=O)O; Nle = CCCC[C@H](N)C(=O)O; Orn = NCCC[C@H](N)C(=O)O; Aun = NCCCCCCCCCCC(=O)O; Dab = NCC[C@H](N)C(=O)O; AEEA = NCCOCCOCC(=O)O

Target: T1, mouse VISTA (mVISTA) (Mus musculus, UniProt Q9D659)
T1 construct: expressed in transfected cells; host or cells: Human embryonic kidney 293T cells
T1 sequence (Q9D659 33-308): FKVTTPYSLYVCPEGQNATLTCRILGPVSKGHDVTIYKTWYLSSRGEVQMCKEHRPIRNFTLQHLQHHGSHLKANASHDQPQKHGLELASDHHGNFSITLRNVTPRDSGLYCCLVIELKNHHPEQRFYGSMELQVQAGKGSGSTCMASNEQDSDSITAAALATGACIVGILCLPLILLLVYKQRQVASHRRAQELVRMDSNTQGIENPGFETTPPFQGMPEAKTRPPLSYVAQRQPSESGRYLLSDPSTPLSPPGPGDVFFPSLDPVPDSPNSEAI
Test: Cell-Based Binding High-Content Assay For mVISTA (HC CBA mVISTA)
How it was run: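 Competition of compound with a biotinylated peptide (final 2 nM, 30 min at RT) for binding to mVISTA on 293T cells, run under no-wash or wash (1 h compound preincubation then removal) formats. Readout by Alexa 647–streptavidin imaging on a high-content platform; four-parameter logistic fit gave IC50.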

[1] = cell-based binding high-content assay, mVISTA, the 16th table, read-out: HC CBA mVISTA IC50
[2] = cell-based binding high-content assay, read-out: HC CBA miPrISTA IC50
[3] = cell-based binding high-content assay, mVISTA, read-out: HC CBA miPr ISTA IC50

CCCCCCN1CC(=O)N[C@@H](Cc2ccc(O)cc2)C(=O)N[C@@H](CCCC)C(=O)N[C@@H](CC(N)=O)C(=O)N[C@@H](CCCNC(=N)N)C(=O)N2Cc3ccccc3C[C@H]2C(=O)N[C@@H](CCCCC)C(=O)N2CCC[C@H]2C(=O)N[C@@H](C(C)(C)C)C(=O)N[C@@H](CO)C(=O)N[C@H](C(=O)NCCOCCOCC(=O)N[C@@H](CCC(=O)NCCOCCOCC(=O)NCCCCCCCCCCC(=O)O)C(=O)O)CSCC(=O)N[C@@H](Cc2ccccc2)C(=O)N[C@@H](Cc2c[nH]c3ccccc23)C(=O)N[C@@H](CC(=O)O)C1=O [compound 2244] ({CH2CO}-FWD[NHexGly]Y[Nle]NR[Tic][Ahp(2)]P[Tle]SC[AEEA][γGlu][AEEA][Aun]-OH; thioether N-14)
IC50 (read-out: HC CBA mVISTA IC50): 0.0322 µM

CCCCCCN1CC(=O)N[C@@H](Cc2ccc(O)cc2)C(=O)N[C@@H](C(C)C)C(=O)NCC(=O)N[C@@H](CCCNC(=N)N)C(=O)N[C@@H](CC(C)C)C(=O)N[C@@H](CCCCC)C(=O)N2CCC[C@H]2C(=O)N[C@@H](C(C)C)C(=O)N[C@@H](CO)C(=O)N[C@H](C(=O)NCC(=O)O)CSCC(=O)N[C@@H](Cc2ccc3ccccc3c2)C(=O)N[C@@H](Cc2ccc(O)cc2)C(=O)N[C@@H](CC(=O)O)C1=O [Ex 1277] ({CH2CO}-[2Nal]YD[NHexGly]YVGRL[Ahp(2)]PVSCG-OH; thioether N-14)
IC50 [1]: 0.0232 µM

CCCCCCN1CC(=O)N[C@@H](Cc2ccc(O)cc2)C(=O)N[C@@H](CC(C)C)C(=O)N[C@@H](CC(N)=O)C(=O)N[C@@H](CCCNC(=N)N)C(=O)N(C)[C@@H](CCCC)C(=O)N[C@@H](CCCCC)C(=O)N2CCC[C@H]2C(=O)N[C@@H](C(C)(C)C)C(=O)N[C@@H](C(C)C)C(=O)N[C@H](C(=O)NCCOCCOCC(=O)N[C@@H](CCC(=O)NCCOCCOCC(=O)NCCCCCCCCCCC(=O)O)C(=O)O)CSCC(=O)N[C@@H](Cc2ccccc2)C(=O)N[C@@H](Cc2ccc(O)cc2)C(=O)N[C@@H](CC(=O)O)C1=O [compound 2277] ({CH2CO}-FYD[NHexGly]YLNR[NMeNle][Ahp(2)]P[Tle]VC[AEEA][γGlu][AEEA][Aun]-OH; thioether N-14)
IC50 (read-out: HC CBA mVISTA IC50): 0.0212 µM

CCCCCCN1CC(=O)N[C@@H](Cc2ccc(O)cc2)C(=O)N[C@@H](CCCC)C(=O)N[C@@H](CC(N)=O)C(=O)N[C@@H](CCCNC(=N)N)C(=O)N[C@@H](CC(C)C)C(=O)N[C@@H](CCCCC)C(=O)N2CCC[C@H]2C(=O)N[C@@H](C(C)C)C(=O)N[C@@H](CC(=O)O)C(=O)N[C@H](C(=O)NCC(=O)O)CSCC(=O)N[C@@H](Cc2ccc3ccccc3c2)C(=O)N[C@@H](Cc2cn(C)c3ccccc23)C(=O)N[C@@H](CC(=O)O)C1=O [compound 1454] ({CH2CO}-[2Nal][Trp(1-Me)]D[NHexGly]Y[Nle]NRL[Ahp(2)]PVDCG-OH; thioether N-14)
IC50 (the 20th table, scaffold drawing 23, read-out: HC CBA mVISTA IC50): 0.0036 µM

CCCCCCN1CC(=O)N[C@@H](Cc2ccc(O)cc2)C(=O)N[C@@H](CCCC)C(=O)N[C@@H](CC(N)=O)C(=O)N[C@@H](CCCNC(=N)N)C(=O)N(C)[C@@H](CCCC)C(=O)N[C@@H](CCCCC)C(=O)N2CCC[C@H]2C(=O)N[C@@H](C(C)(C)C)C(=O)N[C@@H](CO)C(=O)N[C@H](C(=O)NCCOCCOCC(=O)N[C@@H](CCC(=O)NCCOCCOCC(=O)NCCCCCCCCCCC(=O)O)C(=O)O)CSCC(=O)N[C@@H](Cc2ccncc2)C(=O)N[C@@H](Cc2c[nH]c3ccccc23)C(=O)N[C@@H](CC(=O)O)C1=O [compound 2253] ({CH2CO}-[4Pal]WD[NHexGly]Y[Nle]NR[NMeNle][Ahp(2)]P[Tle]SC[AEEA][γGlu][AEEA][Aun]-OH; thioether N-14)
IC50 (read-out: HC CBA mVISTA IC50): 0.0207 µM

CCCCCCN1CC(=O)N[C@@H](Cc2ccc(O)cc2)C(=O)N[C@@H](CCCC)C(=O)N[C@@H](CC(=O)O)C(=O)N[C@@H](CCCN)C(=O)N(C)[C@@H](CCCC)C(=O)N[C@@H](CCCCC)C(=O)N2CCC[C@H]2C(=O)N[C@@H](C(C)(C)C)C(=O)N[C@@H](CO)C(=O)N[C@H](C(=O)N[C@@H](CC(=O)O)C(N)=O)CSCC(=O)N[C@@H](Cc2ccccc2)C(=O)N[C@@H](Cc2c[nH]c3ccccc23)C(=O)N[C@@H](CC(=O)O)C1=O [Example 1376] ({CH2CO}-FWD[NHexGly]Y[Nle]D[Orn][NMeNle][Ahp(2)]P[Tle]SCD-NH2; thioether N-14)
IC50 (read-out: HC CBA mVISTA IC50): 0.0366 µM

CCCCCCN1CC(=O)N[C@@H](Cc2ccc(O)cc2)C(=O)N[C@@H](CC(C)C)C(=O)NCC(=O)N[C@@H](CCCNC(=N)N)C(=O)N[C@@H](CC(C)C)C(=O)N[C@@H](CCCCC)C(=O)N2CCC[C@H]2C(=O)N[C@@H](C(C)C)C(=O)N[C@@H](CC(=O)O)C(=O)N[C@H](C(=O)NCC(N)=O)CSCC(=O)N[C@@H](Cc2ccc3ccccc3c2)C(=O)N[C@@H](Cc2ccc(O)cc2)C(=O)N[C@@H](CC(=O)O)C1=O [Ex 1281] ({CH2CO}-[2Nal]YD[NHexGly]YLGRL[Ahp(2)]PVDCG-NH2; thioether N-14)
IC50 [1]: 0.0229 µM

CCCCCCN1CC(=O)N[C@@H](Cc2ccc(O)cc2)C(=O)N[C@@H](CCCC)C(=O)N[C@@H](CC(N)=O)C(=O)N[C@@H](CCCNC(=N)N)C(=O)N(C)[C@@H](CCCC)C(=O)N[C@@H](CCCCC)C(=O)N2CCC[C@H]2C(=O)N[C@@H](C(C)C)C(=O)N[C@@H](CO)C(=O)N[C@H](C(=O)NCCOCCOCC(=O)N[C@@H](CC(=O)O)C(=O)NCCOCCOCC(=O)NCCCCCCCCCCC(=O)O)CSCC(=O)N[C@@H](Cc2ccccc2)C(=O)N[C@@H](Cc2c[nH]c3ccccc23)C(=O)N[C@@H](CC(=O)O)C1=O (stereo in doubt) [compound 2318]
IC50 [2]: 0.0213 µM

CCCCCCN1CC(=O)N[C@@H](Cc2ccc(O)cc2)C(=O)N[C@@H](CCCCC)C(=O)N[C@@H](CC(N)=O)C(=O)N[C@@H](CCCNC(=N)N)C(=O)N[C@@H](Cc2c[nH]c3ccccc23)C(=O)N[C@@H](CCCCC)C(=O)N2CCC[C@H]2C(=O)N[C@@H](C(C)C)C(=O)N[C@@H](CO)C(=O)N[C@H](C(=O)NCC(=O)O)CSCC(=O)N[C@@H](Cc2ccccc2)C(=O)N[C@@H](Cc2ccc(O)cc2)C(=O)N[C@@H](CC(=O)O)C1=O [Example 1098] ({CH2CO}-FYD[NHexGly]Y[Ahp(2)]NRW[Ahp(2)]PVSCG-OH; thioether N-14)
IC50 (293T cells expressing mouse VISTA, competition with biotinylated peptide (2 nM), read-out: HC CBA mVISTA IC50): 0.0147 µM

CCCCCCN1CC(=O)N[C@@H](Cc2ccc(O)cc2)C(=O)N[C@@H](CCCC)C(=O)N[C@@H](CC(N)=O)C(=O)N[C@@H](CCCNC(=N)N)C(=O)N(C)[C@@H](CCCC)C(=O)N[C@@H](CCCCC)C(=O)N2CCC[C@H]2C(=O)N[C@@H](C(C)C)C(=O)N[C@@H](CC(=O)O)C(=O)N[C@H](C(=O)N[C@@H](CCN)C(=O)N[C@@H](CC(N)=O)C(=O)O)CSCC(=O)N[C@@H](Cc2ccccc2)C(=O)N[C@@H](Cc2c[nH]c3ccccc23)C(=O)N[C@@H](CC(=O)O)C1=O [compound 1131] ({CH2CO}-FWD[NHexGly]Y[Nle]NR[NMeNle][Ahp(2)]PVDC[Dab]N-OH; thioether N-14)
IC50 (read-out: HC CBA mVISTA IC50): 0.0231 µM

CCCCCCN1CC(=O)N[C@@H](Cc2ccc(O)cc2)C(=O)N[C@@H](CC(C)C)C(=O)N[C@@H](CC(=O)O)C(=O)N[C@@H](CCCNC(=N)N)C(=O)N(C)[C@@H](CO)C(=O)N[C@@H](CCCCC)C(=O)N2CCC[C@H]2C(=O)N[C@@H](C(C)(C)C)C(=O)N[C@@H](CC(N)=O)C(=O)N[C@H](C(=O)N[C@@H](CC(=O)NCCOCCOCC(=O)N[C@@H](CC(=O)O)C(=O)NCCOCCOCC(=O)NCCCCCCCCCCC(=O)O)C(=O)O)CSCC(=O)N[C@@H](Cc2ccccc2)C(=O)N[C@@H](Cc2c[nH]c3ccccc23)C(=O)N[C@@H](CC(=O)O)C1=O [compound 2066] ({CH2CO}-FWD[NHexGly]YLDR[NMeS][Ahp(2)]P[Tle]NC[βAsp][AEEA]D[AEEA][Aun]-OH; thioether N-14)
IC50 [3]: 0.0353 µM

CCCCCCN1CC(=O)N[C@@H](Cc2ccc(O)cc2)C(=O)N[C@@H](CCCC)C(=O)N[C@@H](CC(N)=O)C(=O)N[C@@H](CCCNC(=N)N)C(=O)N[C@@H](CC(C)C)C(=O)N[C@@H](CCCCC)C(=O)N2CCC[C@H]2C(=O)N[C@@H](C(C)C)C(=O)N[C@@H](CO)C(=O)N[C@H](C(=O)NCCOCCOCC(=O)N[C@@H](CC(=O)O)C(=O)NCCOCCOCC(=O)NCCCCCCCCCCC(=O)O)CSCC(=O)N[C@@H](Cc2ccc3ccccc3c2)C(=O)N[C@@H](Cc2ccc(O)cc2)C(=O)N[C@@H](CC(=O)O)C1=O (stereo in doubt) [compound 2288]
IC50 [2]: 0.0086 µM

CCCCCCN1CC(=O)N[C@@H](Cc2ccc(O)cc2)C(=O)N[C@@H](CC(C)C)C(=O)N[C@@H](CC(N)=O)C(=O)N[C@@H](CCCN)C(=O)N(C)[C@@H](CC(C)C)C(=O)N[C@@H](CCCCC)C(=O)N2CCC[C@H]2C(=O)N[C@@H](C(C)(C)C)C(=O)N[C@@H](CO)C(=O)N[C@H](C(=O)N[C@@H](CC(=O)NCCOCCOCC(=O)N[C@@H](CC(=O)O)C(=O)NCCOCCOCC(=O)NCCCCCCCCCCC(=O)O)C(=O)O)CSCC(=O)N[C@@H](Cc2ccccc2)C(=O)N[C@@H](Cc2ccc(O)cc2)C(=O)N[C@@H](CC(=O)O)C1=O [Example 2000] ({CH2CO}-FYD[NHexGly]YLN[Orn][NMeL][Ahp(2)]P[Tle]SC[βAsp][AEEA]D[AEEA][Aun]-OH; thioether N-14)
IC50 [3]: 0.0161 µM

CCCCCCN1CC(=O)N[C@@H](Cc2ccc(O)cc2)C(=O)N[C@@H](CCCC)C(=O)N[C@@H](CC(=O)O)C(=O)N[C@@H](CCCN)C(=O)N[C@@H](CC(C)C)C(=O)N[C@@H](CCCCC)C(=O)N2CCC[C@H]2C(=O)N[C@@H](C(C)C)C(=O)N[C@@H](CO)C(=O)N[C@H](C(=O)NCC(=O)O)CSCC(=O)N[C@@H](Cc2ccccc2)C(=O)N[C@@H](Cc2c[nH]c3ccccc23)C(=O)N[C@@H](CC(=O)O)C1=O [Example 1355] ({CH2CO}-FWD[NHexGly]Y[Nle]D[Orn]L[Ahp(2)]PVSCG-OH; thioether N-14)
IC50 (read-out: HC CBA mVISTA IC50): 0.0338 µM
